From BindingDB's records for doi:10.1021/np980173q (Kagoshima University, 1998) come the findings set out here.

SMILES strings stand for the structures.

The test system of the experiment is Enterococcus faecalis. As to the kind of experiment: Antimicrobial activity against Enterococcus faecalis 12964.

What is called IC50 is the midpoint of a concentration-inhibition curve.

Compound `CC(=CCn1c[n+](C)c2ncnc(N)c21)CC[C@@]1(C)[C@H](C)CC[C@@]2(C)C(C)=CCC[C@H]12` [AGELASINE B] registered an IC50 of 13.7 µM.
